Source: patent publication US9427482B2, “Agents for clearing biomolecules from circulation” (KONINKLIJKE PHILIPS N.V., priority 2010, dated 2016)

Tests used:
LS174T xenografts [1] = assay: Dual isotope biodistribution with different amounts of clearing agent 12 (Example 6); assay type: in vivo, mice
Description: (§1) LS174T tumor model. The human colon cancer cell line LS174T was obtained from the ATCC and maintained in Eagle's minimal essential medium (Sigma) supplemented with 10% heat inactivated fetal calf serum (Gibco), penicillin (100 U/mL), streptomycin (100 μg/mL) and […] Glutamax. Nude female Balb/C mice (20-25 g body weight, Charles River Laboratories) were inoculated subcutaneously with 5×10^6 cells in 100 μL sterile PBS.
Nude female mice (n=3-4) bearing LS174T xenografts (0.32±0.16 g) were injected ^125I-CC49-TCO (t=0, 100 μg/100 μl per mouse) followed by 20-200 μg galactose-MSA-tetrazine (12) dissolved in 100 μl saline solution (t=24 hours) and ^111In-labeled 15 (21.3 μg/75 μl per mouse, t=26 hours). At 29 hours post mAb injection, the mice were sacrificed, blood was withdrawn by heart puncture and selected organs and tissues were harvested and blotted dry. The blood samples and tissues were weighed, added with 1 mL PBS and the radioactivity was counted in a gamma counter along with standards to determine the % ID/g (Table 1).

LS174T xenografts [2] = assay: Biodistribution with single and repeated dose of clearing agent 12 (Example 7); assay type: in vivo, mice
Description: as §1
Nude female mice (n=4-6) bearing LS174T xenografts (0.38±0.23 g) were injected ^125I-CC49-TCO (t=0, 100 μg/100 μl per mouse) followed by (a) one 160 μg/100 μl dose of galactose-MSA-tetrazine (12) 48 hours post mAb injection, or (b) two 160 μg/100 μl 12 doses 46 and 48 hours post mAb injection, or (c) two 160 μg/100 μl 12 doses 28 and 48 hours post mAb injection. At 50 hours post mAb injection, the mice received 8.52 μg ^111In-tetrazine and were then sacrificed three hours later, blood was withdrawn by heart puncture and selected organs and tissues were harvested and blotted dry. The blood samples and tissues were weighed, added with 1 mL PBS and the radioactivity was counted in a gamma counter along with standards to determine the % ID/g. The biodistribution data of ^125I-CC49-TCO and ^111In-tetrazine are shown in Table 2 and the ^111In-tetrazine T/organ values are shown in Table 3.

[3] = without clearing agent, 21.3 μg tetrazine/mouse 24 hours post mAb injection; cited from earlier work
[4] = One dose (a): 12 at 48 h post mAb
[5] = Two doses (b): 12 at 46 and 48 h
[6] = Two doses (c): 12 at 28 and 48 h

For `O=C([O-])CN1CCN(CC(=O)[O-])CCN(CC(=O)NCCOCCOCCOCCOCCOCCOCCOCCOCCOCCOCCOCCNC(=O)CCCC(=O)Nc2ccc(-c3nnc(-c4ccccn4)nn3)nc2)CCN(CC(=O)[O-])CC1.[111In+3]` [^111In-tetrazine], the “^111In-tetrazine T/B” value (LS174T xenografts [1]; 12 dose 20 μg/mouse) was 4.5 ± 0.5, the “^111In-tetrazine Tumor” value (LS174T xenografts [1]; 12 dose 20 μg/mouse) was 3.7 ± 0.8 % ID/g and the “^111In-tetrazine T/B” value (LS174T xenografts [1]; 12 dose 45 μg/mouse) was 4.8 ± 0.3. For the same molecule, the “^111In-tetrazine Tumor” value (LS174T xenografts [1]; 12 dose 45 μg/mouse) was 4.1 ± 1.3 % ID/g, the “^111In-tetrazine T/B” value (LS174T xenografts [1]; 12 dose 80 μg/mouse) was 9.2 ± 1.6 and the “^111In-tetrazine Tumor” value (LS174T xenografts [1]; 12 dose 80 μg/mouse) was 3.8 ± 1.1 % ID/g. The “^111In-tetrazine T/B” value (LS174T xenografts [1]; 12 dose 120 μg/mouse) was 11.5 ± 4.2, the “^111In-tetrazine Tumor” value (LS174T xenografts [1]; 12 dose 120 μg/mouse) was 3.0 ± 0.8 % ID/g and the “^111In-tetrazine T/B” value (LS174T xenografts [1]; 12 dose 160 μg/mouse) was 31.6 ± 10.5. The “^111In-tetrazine Tumor” value (LS174T xenografts [1]; 12 dose 160 μg/mouse) was 5.1 ± 1.4 % ID/g, the “^111In-tetrazine T/B” value (LS174T xenografts [1]; 12 dose 200 μg/mouse) was 19.2 ± 3.0 and the “^111In-tetrazine Tumor” value (LS174T xenografts [1]; 12 dose 200 μg/mouse) was 3.6 ± 0.9 % ID/g. The “^111In-tetrazine T/organ blood” value (LS174T xenografts [2]; [4]) was 8.2±4.1, the “^111In-tetrazine T/organ bone” value (LS174T xenografts [2]; [4]) was 10.5 ± 6.5 and the “^111In-tetrazine T/organ brain” value (LS174T xenografts [2]; [4]) was 148.05 ± 61.18. For the same molecule, the “^111In-tetrazine T/organ heart” value (LS174T xenografts [2]; [4]) was 6.7 ± 1.3, the “^111In-tetrazine T/organ kidney” value (LS174T xenografts [2]; [4]) was 2.8 ± 0.3 and the “^111In-tetrazine T/organ liver” value (LS174T xenografts [2]; [4]) was 10.9 ± 1.7. For the same molecule, the “^111In-tetrazine T/organ lung” value (LS174T xenografts [2]; [4]) was 3.1 ± 0.5, the “^111In-tetrazine T/organ muscle” value (LS174T xenografts [2]; [4]) was 9.2±3.6 and the “^111In-tetrazine T/organ spleen” value (LS174T xenografts [2]; [4]) was 11.3 ± 3.3. The “^111In-tetrazine in blood” value (LS174T xenografts [2]; [4]) was 0.40 ± 0.10 % ID/g, the “^111In-tetrazine in bone” value (LS174T xenografts [2]; [4]) was 0.33 ± 0.12 % ID/g and the “^111In-tetrazine in brain” value (LS174T xenografts [2]; [4]) was 0.02 ± 0.00 % ID/g. The “^111In-tetrazine in heart” value (LS174T xenografts [2]; [4]) was 0.45 ± 0.08 % ID/g, the “^111In-tetrazine in kidney” value (LS174T xenografts [2]; [4]) was 1.07 ± 0.10 % ID/g and the “^111In-tetrazine in liver” value (LS174T xenografts [2]; [4]) was 0.27 ± 0.04 % ID/g. The “^111In-tetrazine in lung” value (LS174T xenografts [2]; [4]) was 0.97 ± 0.17 % ID/g, the “^111In-tetrazine in muscle” value (LS174T xenografts [2]; [4]) was 0.35 ± 0.08 % ID/g and the “^111In-tetrazine in spleen” value (LS174T xenografts [2]; [4]) was 0.27 ± 0.04 % ID/g. The “^111In-tetrazine in tumor” value (LS174T xenografts [2]; [4]) was 2.98 ± 0.51 % ID/g, the “^111In-tetrazine T/organ blood” value (LS174T xenografts [2]; [5]) was 15.2 ± 4.1 and the “^111In-tetrazine T/organ bone” value (LS174T xenografts [2]; [5]) was 16.7 ± 6.7. The “^111In-tetrazine T/organ brain” value (LS174T xenografts [2]; [5]) was 222.2 ± 73.6, the “^111In-tetrazine T/organ heart” value (LS174T xenografts [2]; [5]) was 25.6 ± 12.0 and the “^111In-tetrazine T/organ kidney” value (LS174T xenografts [2]; [5]) was 1.6 ± 0.6. The “^111In-tetrazine T/organ liver” value (LS174T xenografts [2]; [5]) was 11.5 ± 3.7, the “^111In-tetrazine T/organ lung” value (LS174T xenografts [2]; [5]) was 8.5 ± 4.2 and the “^111In-tetrazine T/organ muscle” value (LS174T xenografts [2]; [5]) was 19.3 ± 9.2. For the same molecule, the “^111In-tetrazine T/organ spleen” value (LS174T xenografts [2]; [5]) was 15.1 ± 4.9, the “^111In-tetrazine in blood” value (LS174T xenografts [2]; [5]) was 0.10 ± 0.02 % ID/g and the “^111In-tetrazine in bone” value (LS174T xenografts [2]; [5]) was 0.10 ± 0.02 % ID/g. The “^111In-tetrazine in brain” value (LS174T xenografts [2]; [5]) was 0.01 ± 0.00 % ID/g, the “^111In-tetrazine in heart” value (LS174T xenografts [2]; [5]) was 0.07 ± 0.02 % ID/g and the “^111In-tetrazine in kidney” value (LS174T xenografts [2]; [5]) was 0.95 ± 0.06 % ID/g. The “^111In-tetrazine in liver” value (LS174T xenografts [2]; [5]) was 0.13 ± 0.01 % ID/g, the “^111In-tetrazine in lung” value (LS174T xenografts [2]; [5]) was 0.20 ± 0.07 % ID/g and the “^111In-tetrazine in muscle” value (LS174T xenografts [2]; [5]) was 0.09 ± 0.03 % ID/g. For the same molecule, the “^111In-tetrazine in spleen” value (LS174T xenografts [2]; [5]) was 0.10 ± 0.00 % ID/g, the “^111In-tetrazine in tumor” value (LS174T xenografts [2]; [5]) was 1.52 ± 0.48 % ID/g and the “^111In-tetrazine T/organ blood” value (LS174T xenografts [2]; [6]) was 89.0±14.3. For the same molecule, the “^111In-tetrazine T/organ bone” value (LS174T xenografts [2]; [6]) was 93.5 ± 19.7, the “^111In-tetrazine T/organ brain” value (LS174T xenografts [2]; [6]) was 750.2 ± 87.5 and the “^111In-tetrazine T/organ heart” value (LS174T xenografts [2]; [6]) was 82.9 ± 21.3. For the same molecule, the “^111In-tetrazine T/organ kidney” value (LS174T xenografts [2]; [6]) was 3.7 ± 0.8, the “^111In-tetrazine T/organ liver” value (LS174T xenografts [2]; [6]) was 32.3 ± 5.9 and the “^111In-tetrazine T/organ lung” value (LS174T xenografts [2]; [6]) was 27.9 ± 7.0. The “^111In-tetrazine T/organ muscle” value (LS174T xenografts [2]; [6]) was 146.3±30.3, the “^111In-tetrazine T/organ spleen” value (LS174T xenografts [2]; [6]) was 42.4 ± 7.7 and the “^111In-tetrazine in blood” value (LS174T xenografts [2]; [6]) was 0.05 ± 0.00 % ID/g. For the same molecule, the “^111In-tetrazine in bone” value (LS174T xenografts [2]; [6]) was 0.05 ± 0.01 % ID/g, the “^111In-tetrazine in brain” value (LS174T xenografts [2]; [6]) was 0.01 ± 0.00 % ID/g and the “^111In-tetrazine in heart” value (LS174T xenografts [2]; [6]) was 0.05 ± 0.01 % ID/g. For the same molecule, the “^111In-tetrazine in kidney” value (LS174T xenografts [2]; [6]) was 1.18 ± 0.13 % ID/g, the “^111In-tetrazine in liver” value (LS174T xenografts [2]; [6]) was 0.13 ± 0.01 % ID/g and the “^111In-tetrazine in lung” value (LS174T xenografts [2]; [6]) was 0.16 ± 0.03 % ID/g. The “^111In-tetrazine in muscle” value (LS174T xenografts [2]; [6]) was 0.03 ± 0.00 % ID/g, the “^111In-tetrazine in spleen” value (LS174T xenografts [2]; [6]) was 0.10 ± 0.01 % ID/g and the “^111In-tetrazine in tumor” value (LS174T xenografts [2]; [6]) was 4.30 ± 0.50 % ID/g. For the same molecule, the T/blood ratio [3] was 2.2±0.5.
